What was measured:
[1] = test system: GFAP; assay: Immunohistochemical analysis of GFAP expression, hippocampus and frontal cortex (Example 1); assay type: in vivo, C57BL/6 mice; settings: RS mice treated with cotinine
Description: After treatments, the hippocampus and frontal cortex were investigated for changes in neuronal and glia cells architecture by Luxol blue staining, and cresyl violet staining. Also, the expression levels of the astrocyte marker GFAP in cells of the same areas by immunohistochemistry.
After the behavioral testing, mice were euthanized and brains were removed and dissected. Each brain was divided into two parts, left and right hemispheres. The frontal cortex and hippocampus were dissected from left hemisphere on ice and quickly frozen for subsequent analyses at −80° C. The right hemispheres were post-fixed in 10% buffered formalin (pH7.4) for 48 hours, included in paraffin, sliced in 4 μm sections and mounted in slides for histological and immunohistochemical analysis. […]
Three digital images of the slides immunostained for GFAP immunoreactivity (IR) were obtained of the hippocampus and frontal cortex using a digital camera attached to an inverted microscope at 40× magnification (Micrometrics, MilesCo Scientific, Princeton, Minn., USA) operated by software Micrometrics (Micrometrics SE Premium). To quantitate GFAP immunoreactivity the area of immunostaining was delimited and quantitated using the ImageJ software, provided by the National Institute of Health (NIH, Bethesda, […]., USA).

[2] = test system: conditioned mice; assay: Forced swim test after fear conditioning and extinction (Example 4); assay type: in vivo, Mice C57BL/6; settings: FC mice after extinction; Tukey: cotinine p<0.001, combination p<0.005, sertraline p<0.05
Protocol: Three-month-old mice (n=5-6/condition) were weighed and assigned to treatment groups. Mice were treated with vehicle or drugs, starting two h after fear conditioning and daily after behavioral testing until euthanasia. Mice received daily treatments with 1. PBS (phosphate buffer saline, pH 7.4) via intranasal; 2. Cotinine (10 mg/ml) dissolved in PBS via intranasal (IN Cot, 24 μl); 3. Krill oil dissolved in PBS, via intranasal (48 mg/ml, 24 μl); 4. Cotinine (10 mg/ml) plus krill oil dissolved in PBS, via intranasal (48 mg/ml, 24 μl); 5.
For intranasal delivery, mice were hand-restrained, placed in a supine position, and given two 12 μl drops of cotinine solutions, or PBS, into both nares consecutively. Mice were given an extra 12 μl treatment drop if the subject forcibly ejected or sneezed out the solution. Mice were held supine for 5-10 seconds after delivery to ensure that all fluid was inhaled.

[3] = test system: mice subjected to restraint stress; assay: Porsolt test after restraint stress, intranasal post-treatment (Example 1, Experiment 1); assay type: in vivo, C57BL/6 mice; settings: RS mice post-treated with cotinine via IN; p<0.01
Protocol: Mice were treated immediately after the 21 days of immobilization stress (6 h/day) until euthanasia. Mice (n=5-8/condition) received daily treatments with 1. PBS (phosphate buffer saline, pH 7.4) via intranasal (2×12 μl/nostril), 2. PBS via gavage (50 μl); 3. Cotinine dissolved in PBS via oral (gavage, (0.5 mg/kg; Cot 0.5); 4. Cotinine dissolved in PBS via intranasal (Cot IN, 10 mg/ml, 2×12 μl/nostril).
To induce chronic stress, the restraint stress paradigm was used as previously described. Mice are immobilized in 50 ml falcon plastic tubes that were attached to mouse cages. The immobilization proceeded during 6 h from 9:00 AM to 3:00 PM in absence of treatments. Tubes have holes in the opposite side of the tube to allow the animal breathing and urination. Mice were almost completely immobilized for 6 h/day for 21 days after which they were permitted freely to move, eat and drink.
This test is used to measure the antidepressant effects of drugs, and consists in placing each mouse in a transparent cylinder filled with water at room temperature (RT). After a brief period of strong activity, rodents adopt a characteristic immobile posture. The time mice spent immobile is a measure of depressive-like behavior. The immobility time will be recorded during a 15-min and a next day 5-min trial. The time spent by each mouse immobile will be recorded.

[4] = test system: restrained mice; assay: Open field test after chronic restraint stress (Example 2); assay type: in vivo, C57BL/6 male mice; settings: IN cotinine 24 μl of 10 mg/ml daily, RS+PBS 61±19 m
Protocol: Mice between 2-3 months of age after one week of acclimatization were randomly divided into two groups. Stressed mice were subjected to restraint stress. Control (non-restrained) mice were allowed to move freely during this period. After the stress exposure period, mice were divided into three experimental groups: 1) Non-restrained mice treated with vehicle (PBS, pH 7.4) serving as unstressed controls (n=8); 2) Restrained mice (RS) treated with vehicle (n=8); 3), RS mice treated with 24 μl of a cotinine solution (10 mg/ml in PBS, pH 7.4) via intranasal route of administration (n=6). Treatments were administered daily until euthanasia. After two weeks of treatments mice were behaviorally tested and euthanized (FIG. 10) Intranasal delivery was performed as previously described (Hanson and Frey, 2007). Mice at 2-3 months of age were hand-restrained, positioned in a supine position, and administered two 12 μl drops of cotinine solution (10 mg/ml in PBS), or PBS alone, into both nares. […] Mice were individually placed in an uncovered square arena (40 cm×40 cm×35 cm), allowed to freely explore for 30 minutes (min) while monitored with a video tracking software (ANY-Maze®, Stoelting Co., Illinois, USA) under moderate lighting. Several parameters including total distance traveled, speed, and time spent in the center and peripheral zones (20 cm×20 cm) were measured to assess locomotor activity.

Q: How did the “level of GFAP+ cells in the hippocampus and cortex (qualitative analysis)” value [1] turn out when `CN1C(=O)CC[C@H]1c1cccnc1` [Cotinine, (5S)-1-methyl-5-(3-pyridyl) pyrrolidin-2-one] was run?
A: recovery of this expression was observed

Q: And the “depressive-like behavior (immobility) in the forced swim test” value [2]?
A: significantly decreased depressive-like behavior

Q: What about the “depressive-like behavior (freezing/immobility) in the Porsolt test” value [3] of the same compound?
A: significant decrease in depressive-like behavior

Q: And the “distance traveled in the OF test” value [4]?
A: 49±13 m
